Molecules are shown by their SMILES.

In data set [1] the test system is AMPK (phospho-protein). The data set is described as follows: Phosphoproteome array test, phospho-AMPK signal in lysates of treated HL-60 cells. Type of data set: cell-based, human. The method, then:
The phosphorylation profile of AMPK kinase (among other 37 kinases) was performed using the Proteome Profiler Human Phospho-Kinase Antibody Array Kit by R&D Systems (Minneapolis, Minn., USA) according to the protocol. Briefly, the total cellular protein was extracted using the Lysis buffer and was quantified using Bio-Rad DC Protein Assay kit (Hercules, Calif., USA). Nitrocellulose membrane set (A&B), pre-spotted with kinase-specific capture antibodies, were first blocked with Array Buffer-1 at RT for 30 min on a rocking platform shaker. Approximately 600 μg of protein concentrate was diluted in the buffer provided and was added onto the membrane set, and the membranes were incubated overnight at 4° C. in an 8-well plate. Subsequently, membranes were washed with Wash Buffer and incubated with appropriate Detection Antibody cocktails for 2 h at RT. Streptavadin-HRP (1:2000) was added onto membranes and incubated for 30 min at RT. Membranes were washed, and Chemiluminescent Detection Reagents 1&2 were applied in equal volumes for detection. The signals were detected on C-DiGit® Blot Scanner (LI-COR, Odyssey Imaging Systems, Lincoln, Nebr., USA) using Image Studio 5.0 software.

Data set [2] concerns MCF7 spheroids. Description: Cytotoxicity assay (MTT) in spheroid culture, MCF7. Type of data set: cell-based, human. Conditions: for IC50: Homo sapiens, MCF7, 3D spheroid model, 48 h, MTT; for reduction of spheroid size: MCF7 spheroids treated at IC50 for 48 h, vs control. As to the method:
1×10^4 cells of each cell line (MCF7 and T47D) were seeded into ultra-low attachment 96 well plate at 37° C. and grown for 48 hours in DMEM media to result in the formation of spheroids. Then, the cells were subjected to the different treatment conditions before performing the assays.
The cytotoxic effects of MAK compounds were assessed against MCF7 and T47D cell lines using MTT cell viability assay. The cells were treated for 48 hours with different concentrations of each MAK compound and the control cells were subjected to the vehicle (0.1% DMSO). Then, 10% of 5 mg/mL MTT was added to each well containing treated or control cells, and mixture was incubated at 37° C. for 3 hours. After that, the MTT-containing media was replaced with 100 μL DMSO and incubated for 10 minutes at room temperature before measuring the absorbance for each well at 570 nm. According to the measured absorbance, the IC50 was calculated for each compound. All the experiments were performed in biological and experimental replicates.

Data set [3] has as its system MCF7 spheroids. Description: Mitochondrial membrane potential assay (JC-1), MCF7 spheroids. Type of data set: cell-based, human. The conditions noted are these: 48 h post treatment at IC50, control 18.01±0.58%. As to the method:
The mitochondrial membrane potential was investigated in response to the treatment with MAK compounds. This assay depends on the measurement of the aggregate fluorescence for Tetraethylbenzimidazolylcarbocyanine iodide (JC-1). This cationic dye accumulates in the energized mitochondria, and the increase in aggregate fluorescence indicates mitochondrial […] while the reduction indicates the depolarization state.
After growing the cells and treating them with MAK compound for 48 hours, 2 μM of JC-1 final concentration was added and the mixture was incubated for 1 hour at 37° C. in presence of 5% CO2. Then, the samples were analyzed using flow cytometry. Mean values and standard deviation of replicates were calculated in comparison to the control group.

Data set [4] relates to MCF7 spheroids. Description: Reactive oxygen species (CellROX) assay, MCF7 spheroids. Type of data set: cell-based, human. The conditions noted are these: 48 h treatment, CellROX Green. As to the method:
The CELLROX (Invitrogen) assay was used to measure the level of reactive oxygen species (ROS) in live cells. […] The technique was used to investigate the capability of tested compounds to induce intracellular ROS. After forming the spheroids for 48 hours and treating them for additional 48 hours with MAK compound, spheroids were incubated in culture medium with 500 nM CellROX for 60 minutes at 37° C. in presence of 5% CO2, and the samples were immediately analyzed on flow cytometry using 488-nm excitation for the CellROX® Green.

In data set [5] the target is T1, CYP3A4 (Homo sapiens, UniProt P08684).
T1 construct: purchased Fisher Scientific; host or cells: insect supersomes
T1 sequence (P08684 whole entry): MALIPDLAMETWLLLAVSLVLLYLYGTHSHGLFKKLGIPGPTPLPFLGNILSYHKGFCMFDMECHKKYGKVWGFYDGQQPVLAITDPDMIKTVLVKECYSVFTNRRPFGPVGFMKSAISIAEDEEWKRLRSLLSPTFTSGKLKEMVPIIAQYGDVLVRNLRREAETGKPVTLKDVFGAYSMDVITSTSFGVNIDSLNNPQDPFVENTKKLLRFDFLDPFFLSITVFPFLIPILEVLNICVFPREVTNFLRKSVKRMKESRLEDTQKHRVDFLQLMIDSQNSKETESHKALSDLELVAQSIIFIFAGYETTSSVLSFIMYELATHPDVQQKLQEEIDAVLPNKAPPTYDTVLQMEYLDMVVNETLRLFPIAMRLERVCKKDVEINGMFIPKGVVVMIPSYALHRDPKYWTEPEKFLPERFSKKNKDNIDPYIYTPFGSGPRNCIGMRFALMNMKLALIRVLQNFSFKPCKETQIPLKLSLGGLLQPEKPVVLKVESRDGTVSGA
Description: Inhibition assay of human CYP450 enzymes, 3A4. Type of data set: in vitro ADME. The method, then:
(§1) The two compounds MAK-1 and MAK-6 were assessed for its ability to inhibit the three major human CYP450 enzymes, 3A4, 2D6 and 2C9. Assays were run in triplicate. Expressed enzymes in insect supersomes (Fisher Scientific, Waltham, Mass.) were used to minimize non-specific binding and membrane partitioning issues (McMasters et al., 2007). The 3A4 assay uses testosterone as a substrate and analysis was performed by LC/MS/MS on a Waters Xevo TQ instrument as described above using positive electrospray ionization. Assay acceptance criteria was 20% for all standards and 25% for the LLOQ. The 2D6 and 2C9 assays use fluorescent substrates (3-[2-(N,N-diethylamino)ethyl]-7-methoxy-4-methylcoumarin for 2D6; 7-methoxy-4-(trifluoromethyl)coumarin for 2C9) and were analyzed on an Envision plate reader. GraphPad® Prism v 5.04 was used for nonlinear fitting of data to generate IC50 values.

The target in data set [6] is T2, CYP2C9 (Homo sapiens, UniProt P11712).
T2 construct: purchased Fisher Scientific; host or cells: insect supersomes
T2 sequence (P11712 whole entry): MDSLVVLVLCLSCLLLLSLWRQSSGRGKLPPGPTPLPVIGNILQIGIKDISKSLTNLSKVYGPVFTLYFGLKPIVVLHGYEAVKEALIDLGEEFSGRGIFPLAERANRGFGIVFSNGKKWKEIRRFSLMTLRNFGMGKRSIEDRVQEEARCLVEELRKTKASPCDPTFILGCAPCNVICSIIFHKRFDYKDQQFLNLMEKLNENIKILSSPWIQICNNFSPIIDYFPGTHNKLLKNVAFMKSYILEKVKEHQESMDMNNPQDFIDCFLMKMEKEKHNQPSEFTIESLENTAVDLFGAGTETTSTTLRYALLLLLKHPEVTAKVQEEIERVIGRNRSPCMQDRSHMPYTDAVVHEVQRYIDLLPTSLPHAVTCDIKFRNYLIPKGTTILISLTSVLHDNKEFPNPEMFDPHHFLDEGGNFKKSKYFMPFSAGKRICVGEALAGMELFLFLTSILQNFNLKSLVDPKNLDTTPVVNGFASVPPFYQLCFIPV
The data set is described as follows: Inhibition assay of human CYP450 enzymes, 2C9. Type of data set: in vitro ADME. The method, then: as §1

For data set [7], the system named is human skin fibroblasts (HSF). The data set is described as follows: Cytotoxicity on human skin fibroblasts (SRB method). Type of data set: cell-based. As to the method: In addition to have a good physicochemical profile, it is important for a studied lead to differentiate between cancer cells and highly proliferating non-cancerous cells. Therefore, we assessed compounds MAK-1 and MAK-6 for both the in silico and in vitro physicochemical characteristics as well as for cytotoxic effect on human skin fibroblasts (SKF) cell lines. Cytotoxicity was determined using Sulforhodamine B (SRB) method. Exponentially growing human skin fibroblast cells (Nawah Scientific, Cairo, Egypt) were collected using 0.25% Trypsin-EDTA and were then seeded in 96-well plates at a density of 1000-2000 cells/well in 10% FBS and penicillin/streptomycin supplemented RPMI-1640 medium. After 24 h, cells were treated with different concentrations of test compounds and incubated for 72 h at 37° C. in a humidified atmosphere containing 5% CO2. Next, the cells were fixed by adding trichloroacetic acid (TCA, 10% final conc. in wells) directly to the wells and incubated for 1 h at 4° C., then cells were washed with distilled water 5 times to remove excess TCA, media, serum proteins, and metabolites, followed by air drying. After that, the fixed cells were stained with 0.4% SRB dissolved in 1% acetic acid for 10 min at room temperature, and excess stain was removed by quickly rinsing with 1% acetic acid. The residual acetic acid was removed completely by air drying the plates for 24 h, and the dye was solubilized with Tris buffer (pH=7.4, 10 mM) for 5 min on a shaker at 1600 rpm. The optical density (OD) of each well was measured spectrophotometrically at 564 nm with an ELISA microplate reader (ChroMate-4300, FL, USA). The IC50 values were calculated according to the equation for Boltzman sigmoidal concentration—response curve using the nonlinear regression fitting models (Graph Pad, Prism Version 5).

The term IC50 denotes the concentration needed to halve the response being measured. For the compound `COc1cccc(C(=O)Nc2ccc(CC(=O)NCc3ccccc3)cc2)c1` [MAK-1, N-(4-(2-(benzylamino)-2-oxoethyl)phenyl)-3-methoxybenzamide], in data set [1] (compound at 6 μM), the “decrease of phospho-protein AMPK existence” value is 61.8%. In data set [2], inhibition was half-maximal at 23.81 ± 0.16 µM (IC50) and the “reduction of spheroid size” value is listed as “noticeable reduction”. Also, the “depolarized cells (mitochondrial membrane), mean±SEM” value in data set [3] stood at 24.77±0.65%. For the same compound, the “ROS level, treatment vs control” value in data set [4] is listed as 10%. For the same compound, the “inhibition of CYP3A4” value in data set [5] (concentrations up to 10 μM) is reported as “no inhibition”. For the same compound, in data set [6] (concentrations up to 10 μM), the “inhibition of CYP2C9” value is listed as “no inhibition”. For the same compound, the “normal cells inhibited at x-fold higher concentrations than MCF7 breast cancer cells” value in data set [7] (HSF vs MCF7) is given as 7 fold.

With `O=C(Cc1ccc(NC(=O)c2cccc(Cl)c2)cn1)NCc1ccccc1` [MAK-6, N-(6-(2-(benzylamino)-2-oxoethyl)pyridin-3-yl)-3-chlorobenzamide], in data set [1] (compound at 8 μM), the “decrease of phospho-protein AMPK existence” value came to 92.1%. In addition, in data set [2], the IC50 came to 22.9 ± 0.245 µM and the “reduction of spheroid size” value is listed as “noticeable reduction”. Moreover, in data set [3], the “depolarized cells (mitochondrial membrane), mean±SEM” value was 28.73±0.82%. Also, the “ROS level, treatment vs control” value in data set [4] came out at 6%. In addition, the “inhibition of CYP3A4” value in data set [5] (concentration not given) is on record as “did not display any inhibitory activity”. Further, in data set [6] (concentration not given), the “inhibition of CYP2C9” value is “did not display any inhibitory activity”. Besides, in data set [7] (HSF, SRB, 72 h), the “safety to normal cells (human skin fibroblasts)” value is “highly safe”.
